In article PMC6268188, “Comparative Studies of the (Anti) Mutagenicity of Baccharis dracunculifolia and Artepillin C by the Bacterial Reverse Mutation Test” (Molecules, 2012):
Where “and” joins values, the source holds several entries; their conditions need not be identical. Equal values may be shown once. Read-outs that look alike come from different tables or passages of the source. Marks after values point to notes of the source that are not given here.

Key:
[1] = tested on: S. typhimurium TA100
[2] = tested on: S. typhimurium TA102
[3] = tested on: S. typhimurium TA97a
[4] = tested on: S. typhimurium TA100; remark: listed apart in the source
[5] = tested on: mouse micronucleus and comet; design: method as in PMID 21259290; settings: mouse micronucleus and comet assays; cited from earlier work
[6] = tested on: DNA damage induced by methyl methanesulfonate and doxorubicin; settings: micronucleus and comet assays; cited from earlier work
[7] = 0.69 µg/plate + AFB1 0.5 μg/plate, TA 100, + S9
[8] = 0.69 µg/plate + SA 1.25 μg/plate, TA 100, − S9
[9] = 1.37 µg/plate + AFB1 0.5 μg/plate, TA 100, + S9
[10] = 1.37 µg/plate + SA 1.25 μg/plate, TA 100, − S9
[11] = 2.75 µg/plate + AFB1 0.5 μg/plate, TA 100, + S9
[12] = 2.75 µg/plate + SA 1.25 μg/plate, TA 100, − S9
[13] = 5.49 µg/plate + AFB1 0.5 μg/plate, TA 100, + S9
[14] = 5.49 µg/plate + SA 1.25 μg/plate, TA 100, − S9
[15] = […] + SA 1.25 μg/plate, TA 100, − S9

CC(C)=CCc1cc(/C=C/C(=O)O)cc(CC=C(C)C)c1O [ArtC, 3-{4-hydroxy-3,5-di(3-methyl-2-butenyl)phenyl}-2(E)-propenoic acid]
Number of revertants (M ± SD)/ plate ([1]; 1.37 µg/plate, TA 100, + S9): 171 ± 2 revertants/plate | MI (mutagenicity index) ([1]; 1.37 µg/plate, TA 100, − S9): 1.1 | Number of revertants (M ± SD)/ plate ([1]; 1.37 µg/plate, TA 100, − S9): 174 ± 4 revertants/plate | MI (mutagenicity index) ([1]; 2.75 µg/plate, TA 100, + S9): 0.9 | Number of revertants (M ± SD)/ plate ([1]; 2.75 µg/plate, TA 100, + S9): 144 ± 2 revertants/plate | MI (mutagenicity index) ([1]; 2.75 µg/plate, TA 100, − S9): 1.1 | Number of revertants (M ± SD)/ plate ([1]; 2.75 µg/plate, TA 100, − S9): 169 ± 6 revertants/plate | MI (mutagenicity index) ([1]; 5.49 µg/plate, TA 100, + S9): 0.9 | Number of revertants (M ± SD)/ plate ([1]; 5.49 µg/plate, TA 100, + S9): 153 ± 2 revertants/plate | MI (mutagenicity index) ([1]; 5.49 µg/plate, TA 100, − S9): 1.0 | Number of revertants (M ± SD)/ plate ([1]; 5.49 µg/plate, TA 100, − S9): 158 ± 7 revertants/plate | MI (mutagenicity index) ([2]; 0.69 µg/plate, TA 102, + S9): 0.9 | Number of revertants (M ± SD)/ plate ([2]; 0.69 µg/plate, TA 102, + S9): 204 ± 4 revertants/plate | MI (mutagenicity index) ([2]; 0.69 µg/plate, TA 102, − S9): 0.9 | Number of revertants (M ± SD)/ plate ([2]; 0.69 µg/plate, TA 102, − S9): 204 ± 4 revertants/plate | MI (mutagenicity index) ([2]; 1.37 µg/plate, TA 102, + S9): 1.0 | Number of revertants (M ± SD)/ plate ([2]; 1.37 µg/plate, TA 102, + S9): 213 ± 3 revertants/plate | MI (mutagenicity index) ([2]; 1.37 µg/plate, TA 102, − S9): 1.0 | Number of revertants (M ± SD)/ plate ([2]; 1.37 µg/plate, TA 102, − S9): 213 ± 3 revertants/plate | MI (mutagenicity index) ([2]; 2.75 µg/plate, TA 102, + S9): 0.9 | Number of revertants (M ± SD)/ plate ([2]; 2.75 µg/plate, TA 102, + S9): 187 ± 5 revertants/plate | MI (mutagenicity index) ([2]; 2.75 µg/plate, TA 102, − S9): 0.9 | Number of revertants (M ± SD)/ plate ([2]; 2.75 µg/plate, TA 102, − S9): 187 ± 5 revertants/plate | MI (mutagenicity index) ([2]; 5.49 µg/plate, TA 102, + S9): 1.0 | Number of revertants (M ± SD)/ plate ([2]; 5.49 µg/plate, TA 102, + S9): 215 ± 5 revertants/plate | MI (mutagenicity index) ([2]; 5.49 µg/plate, TA 102, − S9): 1.0 | Number of revertants (M ± SD)/ plate ([2]; 5.49 µg/plate, TA 102, − S9): 215 ± 5 revertants/plate | MI (mutagenicity index) ([2]; Salmonella typhimurium): 203 ± 6 (0.9) | Number of revertants (M ± SD)/ plate ([2]; Salmonella typhimurium): 203 ± 6 (0.9) revertants/plate | MI (mutagenicity index) ([3]; 0.69 µg/plate, TA 97, + S9): 1.2 | Number of revertants (M ± SD)/ plate ([3]; 0.69 µg/plate, TA 97, + S9): 194 ± 3 revertants/plate | MI (mutagenicity index) ([3]; 0.69 µg/plate, TA 97, − S9): 1.4 | Number of revertants (M ± SD)/ plate ([3]; 0.69 µg/plate, TA 97, − S9): 207 ± 3 revertants/plate | MI (mutagenicity index) ([3]; 1.37 µg/plate, TA 97, + S9): 1.1 | Number of revertants (M ± SD)/ plate ([3]; 1.37 µg/plate, TA 97, + S9): 174 ± 1 revertants/plate | MI (mutagenicity index) ([3]; 1.37 µg/plate, TA 97, − S9): 1.5 | Number of revertants (M ± SD)/ plate ([3]; 1.37 µg/plate, TA 97, − S9): 221 ± 6 revertants/plate | MI (mutagenicity index) ([3]; 2.75 µg/plate, TA 97, + S9): 1.1 | Number of revertants (M ± SD)/ plate ([3]; 2.75 µg/plate, TA 97, + S9): 175 ± 4 revertants/plate | MI (mutagenicity index) ([3]; 2.75 µg/plate, TA 97, − S9): 1.6 | Number of revertants (M ± SD)/ plate ([3]; 2.75 µg/plate, TA 97, − S9): 246 ± 5 revertants/plate | MI (mutagenicity index) ([3]; 5.49 µg/plate, TA 97, + S9): 1.1 | Number of revertants (M ± SD)/ plate ([3]; 5.49 µg/plate, TA 97, + S9): 175 ± 1 revertants/plate | MI (mutagenicity index) ([3]; 5.49 µg/plate, TA 97, − S9): 1.4 | Number of revertants (M ± SD)/ plate ([3]; 5.49 µg/plate, TA 97, − S9): 207 ± 5 revertants/plate | % inhibition [4]: 30 ** % | Number of revertants (M ± SD)/ plate [4]: 1885 ± 25 revertants/plate and 1507 ± 43 revertants/plate | antimutagenic effect class [4]: 30 ** (key: *: no antimutagenic effect (< 25% inhibition); **: moderate effect (25% - 40% inhibition); ***: strong antimutagenic effect (> 40% inhibition)) | % inhibition [4, 7]: 26% | Number of revertants (M ± SD)/ plate [4, 7]: 1595 ± 37 revertants/plate | % inhibition [4, 8]: 16% | Number of revertants (M ± SD)/ plate [4, 8]: 1833 ± 48 revertants/plate | antimutagenic effect class [4, 8]: * (no antimutagenic effect (< 25% inhibition)) | % inhibition [4, 9]: 24% | Number of revertants (M ± SD)/ plate [4, 9]: 1639 ± 33 revertants/plate | antimutagenic effect class [4, 9]: * (no antimutagenic effect (< 25% inhibition)) | % inhibition [4, 10]: 11% | Number of revertants (M ± SD)/ plate [4, 10]: 1957 ± 36 revertants/plate | antimutagenic effect class [4, 10]: * (no antimutagenic effect (< 25% inhibition)) | % inhibition [4, 11]: 27% | Number of revertants (M ± SD)/ plate [4, 11]: 1575 ± 11 revertants/plate | % inhibition [4, 12]: 17% | Number of revertants (M ± SD)/ plate [4, 12]: 1813 ± 24 revertants/plate | antimutagenic effect class [4, 12]: * (no antimutagenic effect (< 25% inhibition)) | % inhibition [4, 13]: 26% | Number of revertants (M ± SD)/ plate [4, 13]: 1600 ± 38 revertants/plate | % inhibition [4, 14]: 21% | Number of revertants (M ± SD)/ plate [4, 14]: 1727 ± 39 revertants/plate | antimutagenic effect class [4, 14]: * (no antimutagenic effect (< 25% inhibition)) | inhibition of AFB1-induced mutation (text; number = highest observed percent inhibition) ([4]; TA100, with metabolic activation, AFB1): did inhibit mutation | % inhibition [4, 15]: 14% | antimutagenic effect class [4, 15]: * (no antimutagenic effect (< 25% inhibition)) | genotoxic potential [5]: not genotoxic | protection against DNA damage [6]: able to protect against DNA damage
